# Test results published in article PMC10380348 (2023).
# System: MnG4C1 (DNA, G4) AGGGGGGGAGTTAGGGCGCACGTTAGGGGTGCTATTAGGG
# Experiment: ThT fluorescence light-up, 492 nm
# Conditions: 50 mM Tris-HCl pH 7.5, room temperature, 3 µM ThT, 1 mM aptamer
compound,measurement,setting,value
Cc1ccc2c(c1)sc(-c1ccc(N(C)C)cc1)[n+]2C,binding,K+ 0-30 mM,yes
same,binding,Mn2+ 0-100 µM,yes
